Results published in ChEMBL document CHEMBL4828709, “Discovery of 2,4-pyrimidinediamine derivatives as potent dual inhibitors of ALK and HDAC” (Eur J Med Chem, 2021).

Key:
A549 [1] = experiment: cells; assay type: functional, cell-based; conditions: Homo sapiens, A549, 72 h
Description: Antiproliferative activity against human A549 cells assessed as inhibition of cell proliferation measured after 72 hrs by CCK8 assay

[2] = Potency index, ratio of crizotinib IC50 to test compound IC50 for human SKNBE2 cells harboring wild type ALK assessed as inhibition of cell proliferation measured after 72 hrs by CCK8 assay; assay type: functional
HepG2 [3] = experiment: cells; assay type: functional, cell-based; conditions: Homo sapiens, HepG2, 72 h
Description: Antiproliferative activity against human HepG2 cells assessed as inhibition of cell proliferation measured after 72 hrs by CCK8 assay

HepG2 [4] = experiment: Potency index, ratio of crizotinib IC50 to test compound IC50 for human HepG2 cells assessed as inhibition of cell proliferation measured after 72 hrs by CCK8 assay; assay type: functional
HepG2 [5] = experiment: Potency index, ratio of ceritinib IC50 to test compound IC50 for human HepG2 cells assessed as inhibition of cell proliferation measured after 72 hrs by CCK8 assay; assay type: functional
Histone deacetylase 2 = Histone deacetylase 2 (Homo sapiens, UniProt Q92769)
Chain of Histone deacetylase 2 (Q92769 whole entry): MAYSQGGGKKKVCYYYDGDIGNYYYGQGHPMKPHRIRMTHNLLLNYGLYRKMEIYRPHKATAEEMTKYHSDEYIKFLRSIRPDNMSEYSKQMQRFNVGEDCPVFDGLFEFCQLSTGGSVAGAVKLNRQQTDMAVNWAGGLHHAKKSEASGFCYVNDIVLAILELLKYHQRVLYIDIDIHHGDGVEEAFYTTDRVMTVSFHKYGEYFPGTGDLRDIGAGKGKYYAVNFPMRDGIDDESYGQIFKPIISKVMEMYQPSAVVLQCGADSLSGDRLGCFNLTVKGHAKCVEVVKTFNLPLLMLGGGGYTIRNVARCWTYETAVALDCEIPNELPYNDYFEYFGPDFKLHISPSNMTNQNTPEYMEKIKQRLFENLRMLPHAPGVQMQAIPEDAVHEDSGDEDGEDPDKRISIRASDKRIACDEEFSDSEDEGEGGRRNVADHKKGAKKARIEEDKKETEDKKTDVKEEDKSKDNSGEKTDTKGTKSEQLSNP
Description: Inhibition of HDAC2 (unknown origin)

[6] = Potency index, ratio of ceritinib IC50 to test compound IC50 for human SKNBE2 cells harboring wild type ALK assessed as inhibition of cell proliferation measured after 72 hrs by CCK8 assay; assay type: functional
SH-SY5Y [7] = experiment: Potency index, ratio of ceritinib IC50 to test compound IC50 for human SH-SY5Y cells harboring ALK F1174L mutant assessed as inhibition of cell proliferation measured after 72 hrs by CCK8 assay; assay type: functional
MDA-MB-231 [8] = experiment: Potency index, ratio of ceritinib IC50 to test compound IC50 for human MDA-MB-231 cells assessed as inhibition of cell proliferation measured after 72 hrs by CCK8 assay; assay type: functional
NCI-H2228 [9] = experiment: cells; assay type: functional, cell-based; conditions: Homo sapiens, NCI-H2228, 72 h
MDA-MB-231 [10] = experiment: Potency index, ratio of crizotinib IC50 to test compound IC50 for human MDA-MB-231 cells assessed as inhibition of cell proliferation measured after 72 hrs by CCK8 assay; assay type: functional
[11] = target: T1, ALK tyrosine kinase receptor (Homo sapiens, UniProt Q9UM73); experiment: Inhibition of ALK (unknown origin) at 100 nM preincubated for 10 mins followed by addition of substrate and ATP for 25 mins by caliper EZ reader method; conditions: time 35.0 min
Target sequence in this assay (Q9UM73 19-1620 limits assumed): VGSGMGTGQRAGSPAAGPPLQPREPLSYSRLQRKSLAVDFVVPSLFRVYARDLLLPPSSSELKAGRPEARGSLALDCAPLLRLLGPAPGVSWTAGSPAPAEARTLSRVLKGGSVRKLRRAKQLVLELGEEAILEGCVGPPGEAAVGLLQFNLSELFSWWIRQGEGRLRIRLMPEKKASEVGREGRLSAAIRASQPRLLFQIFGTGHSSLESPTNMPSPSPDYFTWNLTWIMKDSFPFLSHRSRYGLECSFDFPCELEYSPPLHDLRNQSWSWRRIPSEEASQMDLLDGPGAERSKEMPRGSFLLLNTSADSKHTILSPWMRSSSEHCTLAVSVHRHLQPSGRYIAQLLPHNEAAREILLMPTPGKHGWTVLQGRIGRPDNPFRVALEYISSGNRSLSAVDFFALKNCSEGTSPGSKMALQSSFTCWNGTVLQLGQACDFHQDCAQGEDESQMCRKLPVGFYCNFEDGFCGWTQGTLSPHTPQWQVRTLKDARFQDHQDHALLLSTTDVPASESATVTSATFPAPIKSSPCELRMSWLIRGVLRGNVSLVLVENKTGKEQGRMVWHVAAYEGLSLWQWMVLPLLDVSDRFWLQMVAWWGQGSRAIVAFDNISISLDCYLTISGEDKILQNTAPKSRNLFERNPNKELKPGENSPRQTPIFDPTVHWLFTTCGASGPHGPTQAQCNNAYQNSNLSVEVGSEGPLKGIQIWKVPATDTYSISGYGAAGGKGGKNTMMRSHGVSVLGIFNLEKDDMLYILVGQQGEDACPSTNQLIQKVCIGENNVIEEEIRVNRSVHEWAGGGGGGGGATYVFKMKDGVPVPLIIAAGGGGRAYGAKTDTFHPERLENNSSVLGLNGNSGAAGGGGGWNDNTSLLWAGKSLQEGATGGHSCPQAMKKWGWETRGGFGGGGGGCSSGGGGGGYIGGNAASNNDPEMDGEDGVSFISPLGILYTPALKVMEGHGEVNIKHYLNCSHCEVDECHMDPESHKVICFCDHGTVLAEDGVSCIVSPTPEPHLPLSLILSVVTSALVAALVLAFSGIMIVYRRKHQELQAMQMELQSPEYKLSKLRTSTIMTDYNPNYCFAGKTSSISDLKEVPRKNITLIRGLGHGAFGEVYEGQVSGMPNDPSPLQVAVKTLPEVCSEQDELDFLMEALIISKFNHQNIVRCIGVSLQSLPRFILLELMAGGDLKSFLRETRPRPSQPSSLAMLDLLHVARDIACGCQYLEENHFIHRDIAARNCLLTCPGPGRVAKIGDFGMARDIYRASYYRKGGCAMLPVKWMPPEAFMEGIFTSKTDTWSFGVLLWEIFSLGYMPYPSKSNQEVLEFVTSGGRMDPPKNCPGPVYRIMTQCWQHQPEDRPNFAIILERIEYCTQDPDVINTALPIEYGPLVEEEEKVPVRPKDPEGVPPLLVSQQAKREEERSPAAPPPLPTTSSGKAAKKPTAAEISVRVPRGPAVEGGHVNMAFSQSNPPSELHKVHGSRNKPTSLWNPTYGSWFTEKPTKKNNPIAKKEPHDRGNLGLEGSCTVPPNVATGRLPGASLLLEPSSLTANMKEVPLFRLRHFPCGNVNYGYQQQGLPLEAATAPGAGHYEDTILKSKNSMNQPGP

A549 [12] = experiment: Potency index, ratio of crizotinib IC50 to test compound IC50 for human A549 cells assessed as inhibition of cell proliferation measured after 72 hrs by CCK8 assay; assay type: functional
Histone deacetylase 1 [13] = target: T2, Histone deacetylase 1 (Homo sapiens, UniProt Q13547); conditions: Sf9, dose 100.0 nM, time 15.0 min
T2 sequence (Q13547 whole entry): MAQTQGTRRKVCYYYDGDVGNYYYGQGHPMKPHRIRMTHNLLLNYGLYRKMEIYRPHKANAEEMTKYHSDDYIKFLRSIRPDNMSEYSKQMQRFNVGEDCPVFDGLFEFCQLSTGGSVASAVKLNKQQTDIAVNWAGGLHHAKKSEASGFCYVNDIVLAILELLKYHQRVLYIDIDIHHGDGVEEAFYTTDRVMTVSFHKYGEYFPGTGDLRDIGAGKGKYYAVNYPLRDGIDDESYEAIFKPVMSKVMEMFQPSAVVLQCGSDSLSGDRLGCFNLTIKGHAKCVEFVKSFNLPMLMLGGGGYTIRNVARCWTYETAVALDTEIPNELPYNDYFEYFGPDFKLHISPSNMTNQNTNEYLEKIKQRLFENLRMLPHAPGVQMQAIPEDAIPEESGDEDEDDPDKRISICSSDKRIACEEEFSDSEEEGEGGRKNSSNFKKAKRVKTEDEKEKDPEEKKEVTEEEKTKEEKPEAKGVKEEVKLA

[14] = target: T1, ALK tyrosine kinase receptor
Target sequence in this assay (Q9UM73 whole entry): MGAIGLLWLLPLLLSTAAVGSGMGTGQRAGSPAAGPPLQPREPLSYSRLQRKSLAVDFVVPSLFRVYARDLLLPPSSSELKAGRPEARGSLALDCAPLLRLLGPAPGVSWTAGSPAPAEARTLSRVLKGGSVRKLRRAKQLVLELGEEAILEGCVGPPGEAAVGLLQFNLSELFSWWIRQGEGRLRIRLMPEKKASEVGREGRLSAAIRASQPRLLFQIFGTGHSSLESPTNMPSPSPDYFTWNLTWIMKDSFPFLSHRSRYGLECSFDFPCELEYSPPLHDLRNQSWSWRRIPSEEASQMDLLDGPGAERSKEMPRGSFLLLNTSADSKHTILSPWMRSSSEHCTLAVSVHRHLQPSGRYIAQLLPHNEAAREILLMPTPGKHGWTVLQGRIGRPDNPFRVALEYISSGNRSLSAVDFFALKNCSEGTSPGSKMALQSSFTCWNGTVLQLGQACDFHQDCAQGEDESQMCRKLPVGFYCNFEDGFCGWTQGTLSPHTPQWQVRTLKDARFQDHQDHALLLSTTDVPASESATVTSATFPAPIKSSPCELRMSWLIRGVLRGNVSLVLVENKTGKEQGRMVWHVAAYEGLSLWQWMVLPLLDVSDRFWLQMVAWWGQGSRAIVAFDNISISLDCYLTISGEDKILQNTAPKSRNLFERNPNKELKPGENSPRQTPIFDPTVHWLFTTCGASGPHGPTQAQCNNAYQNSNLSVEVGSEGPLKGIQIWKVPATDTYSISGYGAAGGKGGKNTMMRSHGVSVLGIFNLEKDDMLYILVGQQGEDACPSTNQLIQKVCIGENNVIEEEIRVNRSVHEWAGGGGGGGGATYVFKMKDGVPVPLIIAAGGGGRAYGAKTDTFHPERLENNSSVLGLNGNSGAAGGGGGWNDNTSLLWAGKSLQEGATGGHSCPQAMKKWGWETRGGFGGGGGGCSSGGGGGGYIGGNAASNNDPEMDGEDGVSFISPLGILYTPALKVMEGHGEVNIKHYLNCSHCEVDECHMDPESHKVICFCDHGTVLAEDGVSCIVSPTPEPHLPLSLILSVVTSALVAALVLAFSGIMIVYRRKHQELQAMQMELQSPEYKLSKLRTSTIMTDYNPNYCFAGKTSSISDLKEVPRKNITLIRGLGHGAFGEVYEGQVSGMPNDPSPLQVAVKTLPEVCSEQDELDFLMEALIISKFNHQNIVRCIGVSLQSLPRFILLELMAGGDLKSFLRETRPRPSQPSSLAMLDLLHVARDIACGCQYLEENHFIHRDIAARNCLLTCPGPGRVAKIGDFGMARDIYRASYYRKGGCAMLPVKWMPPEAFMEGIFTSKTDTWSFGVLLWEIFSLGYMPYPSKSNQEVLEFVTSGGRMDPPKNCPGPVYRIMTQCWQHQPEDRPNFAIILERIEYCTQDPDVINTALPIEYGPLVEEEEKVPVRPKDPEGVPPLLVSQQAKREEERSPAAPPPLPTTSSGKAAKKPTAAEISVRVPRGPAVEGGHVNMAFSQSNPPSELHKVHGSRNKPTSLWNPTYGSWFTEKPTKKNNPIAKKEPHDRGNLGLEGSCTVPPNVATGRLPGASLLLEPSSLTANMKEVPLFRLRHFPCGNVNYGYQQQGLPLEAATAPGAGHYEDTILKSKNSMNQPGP
Description: Inhibition of ALK (unknown origin) preincubated for 10 mins followed by addition of substrate and ATP for 25 mins by caliper EZ reader method

MDA-MB-231 [15] = experiment: cells; assay type: functional, cell-based; conditions: Homo sapiens, MDA-MB-231, 72 h
Description: Antiproliferative activity against human MDA-MB-231 cells assessed as inhibition of cell proliferation measured after 72 hrs by CCK8 assay

SH-SY5Y [16] = experiment: Potency index, ratio of crizotinib IC50 to test compound IC50 for human SH-SY5Y cells harboring ALK F1174L mutant assessed as inhibition of cell proliferation measured after 72 hrs by CCK8 assay; assay type: functional
Histone deacetylase 1 [17] = target: T2, Histone deacetylase 1; conditions: Sf9, dose 10.0 nM, time 15.0 min
NCI-H2228 [18] = experiment: Potency index, ratio of crizotinib IC50 to test compound IC50 for human NCI-H2228 cells harboring EML4/ALK […] assessed as inhibition of cell proliferation measured after 72 hrs by CCK8 assay; assay type: functional
Histone deacetylase 1 [19] = target: T2, Histone deacetylase 1; experiment: biochemical
Description: Inhibition of recombinant human C-terminal His/FLAG-tagged HDAC1 (1 to 482 residues) expressed in Sf9 insect cells using Ac-peptide-AMC as substrate preincubated for 15 mins followed by addition of substrate and trypsin measured by flourescence assay

cells = assay type: functional, cell-based; conditions: Homo sapiens, SKNBE2, 72 h
Description: Antiproliferative activity against human SKNBE2 cells harboring wild type ALK assessed as inhibition of cell proliferation measured after 72 hrs by CCK8 assay

[20] = target: ALK tyrosine kinase receptor (Homo sapiens, UniProt Q9UM73, L1196M)
Chain of ALK tyrosine kinase receptor (Homo sapiens, UniProt Q9UM73, L1196M) (Q9UM73 19-1620 L1196M limits assumed): as the sequence (Q9UM73 19-1620 limits assumed) above, with L1178M counted along it

[21] = target: T3, Protein deacetylase HDAC6 (Homo sapiens, UniProt Q9UBN7)
T3 sequence (Q9UBN7 whole entry): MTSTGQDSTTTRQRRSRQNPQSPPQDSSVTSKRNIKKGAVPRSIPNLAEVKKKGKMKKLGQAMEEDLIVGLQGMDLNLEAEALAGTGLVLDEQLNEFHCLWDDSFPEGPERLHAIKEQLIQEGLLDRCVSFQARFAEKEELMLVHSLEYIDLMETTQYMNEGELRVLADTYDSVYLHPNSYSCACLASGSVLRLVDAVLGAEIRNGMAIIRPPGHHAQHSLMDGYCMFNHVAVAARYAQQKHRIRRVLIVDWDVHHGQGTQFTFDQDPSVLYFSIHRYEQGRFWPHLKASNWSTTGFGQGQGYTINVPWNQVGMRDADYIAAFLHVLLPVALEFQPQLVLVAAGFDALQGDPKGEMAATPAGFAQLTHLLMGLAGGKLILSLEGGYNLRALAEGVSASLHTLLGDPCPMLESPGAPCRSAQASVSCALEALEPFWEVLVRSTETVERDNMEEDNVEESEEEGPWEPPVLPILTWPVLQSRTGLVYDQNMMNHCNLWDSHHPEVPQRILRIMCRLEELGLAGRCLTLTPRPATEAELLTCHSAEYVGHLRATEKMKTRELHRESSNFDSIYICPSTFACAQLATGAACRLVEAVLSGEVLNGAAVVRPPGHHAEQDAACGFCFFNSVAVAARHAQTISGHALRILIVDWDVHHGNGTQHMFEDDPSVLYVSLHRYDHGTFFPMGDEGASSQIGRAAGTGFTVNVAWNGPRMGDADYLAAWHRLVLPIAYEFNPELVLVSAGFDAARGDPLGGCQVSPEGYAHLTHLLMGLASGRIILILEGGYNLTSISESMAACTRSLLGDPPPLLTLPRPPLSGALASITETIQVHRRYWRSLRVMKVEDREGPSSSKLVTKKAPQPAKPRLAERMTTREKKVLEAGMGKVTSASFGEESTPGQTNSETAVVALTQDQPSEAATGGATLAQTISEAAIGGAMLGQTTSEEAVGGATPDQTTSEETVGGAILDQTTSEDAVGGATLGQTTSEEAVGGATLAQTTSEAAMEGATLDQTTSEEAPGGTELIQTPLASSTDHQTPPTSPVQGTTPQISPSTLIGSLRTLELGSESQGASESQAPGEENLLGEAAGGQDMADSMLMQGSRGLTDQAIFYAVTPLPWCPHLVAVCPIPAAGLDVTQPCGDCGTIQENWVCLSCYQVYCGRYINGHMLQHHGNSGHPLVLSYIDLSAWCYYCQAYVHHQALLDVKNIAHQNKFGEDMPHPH
Description: Inhibition of HDAC6 (unknown origin)

SH-SY5Y [22] = experiment: cells; assay type: functional, cell-based; conditions: Homo sapiens, 72 h
Description: Antiproliferative activity against human SH-SY5Y cells harboring ALK F1174L mutant assessed as inhibition of cell proliferation measured after 72 hrs by CCK8 assay

[23] = target: ALK tyrosine kinase receptor (Homo sapiens, UniProt Q9UM73, G1202R)
Chain of ALK tyrosine kinase receptor (Homo sapiens, UniProt Q9UM73, G1202R) (Q9UM73 19-1620 G1202R limits assumed): as the sequence (Q9UM73 19-1620 limits assumed) above, with G1184R counted along it

A549 [24] = experiment: Potency index, ratio of ceritinib IC50 to test compound IC50 for human A549 cells assessed as inhibition of cell proliferation measured after 72 hrs by CCK8 assay; assay type: functional
NCI-H2228 [25] = experiment: Potency index, ratio of ceritinib IC50 to test compound IC50 for human NCI-H2228 cells harboring EML4/ALK […] assessed as inhibition of cell proliferation measured after 72 hrs by CCK8 assay; assay type: functional
[26] = target: T1, ALK tyrosine kinase receptor; experiment: Inhibition of ALK (unknown origin) at 10 nM preincubated for 10 mins followed by addition of substrate and ATP for 25 mins by caliper EZ reader method; conditions: time 35.0 min
Target sequence in this assay (Q9UM73 19-1620 limits assumed): as the sequence (Q9UM73 19-1620 limits assumed) above

MDA-MB-231 [27] = experiment: Induction of apoptosis in human MDA-MB-231 cells assessed as viable cells at 1 uM measured after 24 hrs by Annexin V-FITC/PI staining based flowcytometry (reference value: 93.14%); assay type: functional; conditions: read-out: Activity
SH-SY5Y [28] = experiment: Induction of apoptosis in human SH-SY5Y cells assessed as necrotic cells at 1 uM measured after 24 hrs by Annexin V-FITC/PI staining based flowcytometry (reference value: 7.81%); assay type: functional
SH-SY5Y [29] = experiment: Induction of apoptosis in human SH-SY5Y cells assessed as early apoptotic cells at 1 uM measured after 24 hrs by Annexin V-FITC/PI staining based flowcytometry (reference value: 0.82%); assay type: functional
MDA-MB-231 [30] = experiment: Induction of apoptosis in human MDA-MB-231 cells assessed as necrotic cells at 1 uM measured after 24 hrs by Annexin V-FITC/PI staining based flowcytometry (reference value: 0.94%); assay type: functional
SH-SY5Y [31] = experiment: Induction of apoptosis in human SH-SY5Y cells assessed as late apoptotic cells at 1 uM measured after 24 hrs by Annexin V-FITC/PI staining based flowcytometry (reference value: 14.32%); assay type: functional
MDA-MB-231 [32] = experiment: Induction of apoptosis in human MDA-MB-231 cells assessed as late apoptotic cells at 1 uM measured after 24 hrs by Annexin V-FITC/PI staining based flowcytometry ( Rvb = 5.28%); assay type: functional
MDA-MB-231 [33] = experiment: Induction of apoptosis in human MDA-MB-231 cells assessed as early apoptotic cells at 1 uM measured after 24 hrs by Annexin V-FITC/PI staining based flowcytometry ( Rvb = […]%); assay type: functional
SH-SY5Y [34] = experiment: Induction of apoptosis in human SH-SY5Y cells assessed as viable cells at 1 uM measured after 24 hrs by Annexin V-FITC/PI staining based flowcytometry (reference value: 77.05%); assay type: functional; conditions: read-out: Activity

In the case of `CC(C)S(=O)(=O)c1ccccc1Nc1nc(Nc2ccc(C(=O)NCCCCCCC(=O)NO)cc2)ncc1Cl`, the IC50 (A549 [1]) is reported as 3420 nM, the “Ratio IC50” value [2] is reported as 3 and the IC50 (HepG2 [3]) is reported as 910 nM. The “Ratio IC50” value (HepG2 [4]) was 3, the “Ratio IC50” value (HepG2 [5]) was 3 and the IC50 (Histone deacetylase 2) was 15 nM. For the same compound, the “Ratio IC50” value [6] was 3, the “Ratio IC50” value (SH-SY5Y [7]) was 3 and the “Ratio IC50” value (MDA-MB-231 [8]) was 3. The IC50 (NCI-H2228 [9]) was 180 nM, the “Ratio IC50” value (MDA-MB-231 [10]) was 3 and the inhibition [11] was 103%. For the same compound, the “Ratio IC50” value (A549 [12]) was 3, the inhibition (Histone deacetylase 1 [13]) was 100% and the IC50 [14] was 4.3 nM. For the same compound, the IC50 (MDA-MB-231 [15]) was 390 nM, the “Ratio IC50” value (SH-SY5Y [16]) was 3 and the inhibition (Histone deacetylase 1 [17]) was 49%. For the same compound, the “Ratio IC50” value (NCI-H2228 [18]) was 3, the IC50 (Histone deacetylase 1 [19]) was 12 nM and the IC50 (cells) was 220 nM. The IC50 [20] was 2.4 nM, the IC50 [21] was 6.7 nM and the IC50 (SH-SY5Y [22]) was 340 nM. The IC50 [23] was 1 nM, the “Ratio IC50” value (A549 [24]) was 3 and the “Ratio IC50” value (NCI-H2228 [25]) was 3. For the same compound, the inhibition [26] was 84.5%.

With `Cc1cc(Nc2ncc(Cl)c(Nc3ccccc3S(=O)(=O)C(C)C)n2)c(OC(C)C)cc1C1CCNCC1` [CERITINIB] the viability at 1 µM (MDA-MB-231 [27]) was 90.2%, the IC50 (HepG2 [3]) was 4080 nM and the Activity (SH-SY5Y [28]) was 11.77%. For the same compound, the IC50 (NCI-H2228 [9]) was 1980 nM, the Activity (SH-SY5Y [29]) was 2.07% and the Activity (MDA-MB-231 [30]) was 1.55%. It also gave an IC50 (MDA-MB-231 [15]) of 1820 nM, an Activity (SH-SY5Y [31]) of 20.4% and an Activity (MDA-MB-231 [32]) of 7.07%. It also gave an IC50 (cells) of 2660 nM, an Activity (MDA-MB-231 [33]) of 1.17% and an IC50 (SH-SY5Y [22]) of 370 nM. The viability at 1 µM (SH-SY5Y [34]) was 81.9%.
